This note sets out measurements from PubChem BioAssay AID652137 (The Scripps Research Institute Molecular Screening Center, 2013).

Activity calls are given as the source filed them. The rule behind the calls is not given here. Where only a bound is given, the exact number is not on record here.

Chain of Hepatocyte nuclear factor 4-alpha (Homo sapiens) (P41235 whole entry, looked up): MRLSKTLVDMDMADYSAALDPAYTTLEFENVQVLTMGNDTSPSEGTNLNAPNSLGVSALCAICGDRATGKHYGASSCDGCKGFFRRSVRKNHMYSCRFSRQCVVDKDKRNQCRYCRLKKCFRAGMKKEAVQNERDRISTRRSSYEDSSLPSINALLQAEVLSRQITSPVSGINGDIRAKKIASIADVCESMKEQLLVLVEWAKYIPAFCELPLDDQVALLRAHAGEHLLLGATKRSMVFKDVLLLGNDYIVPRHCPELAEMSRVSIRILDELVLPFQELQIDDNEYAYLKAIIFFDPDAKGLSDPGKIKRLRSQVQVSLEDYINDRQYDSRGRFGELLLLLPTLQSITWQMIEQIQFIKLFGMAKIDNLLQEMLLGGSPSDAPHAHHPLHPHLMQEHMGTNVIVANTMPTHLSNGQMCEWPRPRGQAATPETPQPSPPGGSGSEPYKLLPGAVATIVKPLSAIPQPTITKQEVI

This test concerns the target Hepatocyte nuclear factor 4-alpha (Homo sapiens) (UniProt P41235). Kind of test: HNF4 dimerization inhibitors, late-stage follow-up, counter-screen for ABHD5-PLIN5 interaction inhibitor project, biochemical, luminescence, dose response, round 3 (AID 652137). As to conditions: luminescence biochemical assay. (Counterscreens check selectivity or assay interference.)
For the compound `CCCCCCCNC(=O)Nc1ccc2c(c1)N(C)C(=O)c1ccccc1S2`, the IC50 – broadly, the concentration at which inhibition is half-maximal – is > 39.8 µM (inactive).

For the compound `CN1C(=O)c2ccccc2Sc2ccc(NC(=O)NCCCc3ccccc3)cc21`, the IC50 was > 39.8 µM (inactive).

As for `CCCCCCNC(=O)Nc1ccc2c(c1)N(C)C(=O)c1ccccc1S2`, the IC50 was > 39.8 µM (inactive).

As to `CCCCCNC(=O)Nc1ccc2c(c1)N(C)C(=O)c1ccccc1S2`, the IC50 was > 39.8 µM (inactive).

For the compound `CCCCNC(=O)Nc1ccc2c(c1)N(C)C(=O)c1ccccc1S2`, the IC50 was > 39.8 µM (inactive).
